# pIC50: −log10 of the molar value.
# Biological target: HPK1 (Homo sapiens (Human), UniProt Q92918)
# Assay: HPK1 biochemical enzyme assay (microfluidic mobility shift assay)
# Conditions: 1.5 nM HPK1, ATP 1 mM final, 30 min preincubation, 60 min at RT, Caliper EZ Reader; read-out: HPK1 1000UMATP caliper IC50
# How it was run: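 Mobility shift readout of HPK1 activity after a 60 min RT reaction with 1 mM ATP, 1 μM substrate and 5 mM MgCl2. Enzyme/substrate mix was first exposed to compounds for 30 min, using ten-point curves topping at 3 μM final.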
# Chain of HPK1 (Q92918 whole entry): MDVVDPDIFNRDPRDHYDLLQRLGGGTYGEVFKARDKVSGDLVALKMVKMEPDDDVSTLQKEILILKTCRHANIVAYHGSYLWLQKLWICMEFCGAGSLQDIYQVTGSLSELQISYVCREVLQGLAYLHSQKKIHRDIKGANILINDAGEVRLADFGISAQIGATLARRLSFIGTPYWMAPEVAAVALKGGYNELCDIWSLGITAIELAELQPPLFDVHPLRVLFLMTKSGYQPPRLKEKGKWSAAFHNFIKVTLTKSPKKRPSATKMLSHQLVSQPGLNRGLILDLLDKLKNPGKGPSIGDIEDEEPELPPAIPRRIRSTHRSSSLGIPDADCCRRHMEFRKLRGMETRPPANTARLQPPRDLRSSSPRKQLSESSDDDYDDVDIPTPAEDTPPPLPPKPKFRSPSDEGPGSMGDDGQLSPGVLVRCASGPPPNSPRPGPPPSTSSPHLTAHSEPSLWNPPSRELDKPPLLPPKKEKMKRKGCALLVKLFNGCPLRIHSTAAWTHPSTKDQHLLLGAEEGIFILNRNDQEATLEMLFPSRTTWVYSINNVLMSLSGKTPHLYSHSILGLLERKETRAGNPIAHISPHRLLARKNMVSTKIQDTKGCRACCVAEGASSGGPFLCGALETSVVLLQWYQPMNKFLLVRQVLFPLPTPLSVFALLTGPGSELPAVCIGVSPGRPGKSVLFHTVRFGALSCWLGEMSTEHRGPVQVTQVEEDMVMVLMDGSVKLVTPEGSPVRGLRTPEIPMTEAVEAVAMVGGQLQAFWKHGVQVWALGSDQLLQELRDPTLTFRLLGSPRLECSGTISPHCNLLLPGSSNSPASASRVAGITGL
row,SMILES,pIC50
1,"Cn1ccc2c(-c3ccc(Nc4ccc(N5CCC[C@@H](N)C5)cn4)c4c3CNC4=O)ccnc21 [I-95, 7-[[5-[(3R)-3-amino-1-piperipyl]-2-pyridyl]amino]-4-(1-methylpyrrolo [2,3-b]pyridin-4-yl)isoindolin-1-one]",> 7.00
2,"Cn1ccc2c(-c3ccc(Nc4ccc(C5CCNCC5)cn4)c4c3CNC4=O)ccnc21 [I-96, 4-(1-methylpyrrolo [2,3-b]pyridin-4-yl)-7-[[5-(4-piperidyl)-2-pyridyl]amino] isoindolin-1-one]",> 7.00
3,"CN[C@H]1CCCN(c2ccc(Nc3ccc(-c4ccnc5c4ccn5C)c4c3C(=O)NC4)nc2)C1 [I-97, 7-[[5-[(3S)-3-(methylamino)-1-piperidyl]-2-pyridyl]amino]-4-(1-methylpyrrolo [2,3-b]pyridin-4-yl)isoindolin-1-one]",> 7.00
4,Cc1cn(C)c2nccc(-c3ccc(Nc4ccc(N5CCNCC5)cn4)c4c3CNC4=O)c12 [I-98],> 7.00
5,"Cc1cnc2c(ccn2C)c1-c1ccc(Nc2ccc(N3CCNCC3)cn2)c2c1CNC2=O [I-99, 4-(l,5-dimethylpyrrolo [2,3-b]pyridin-4-yl)-7-[(5-piperazin-1-yl-2-pyridyl)amino] isoindolin-1-one]",6.00 to 7.00
6,"CN[C@@H]1CCCN(c2ccc(Nc3ccc(-c4ccnc5c4ccn5C)c4c3C(=O)NC4)nc2)C1 [I-100, 7-[[5-[(3R)-3-(methviamino)-1-piperidyl]-2-pyridyl]amino]-4-(1-methylpyrrolo [2,3-b]pyridin-4-yl)isoindolin-1-one]",> 7.00
7,"O=C1NCc2c(-c3cnc4ccccn34)ccc(Nc3ccc(N4CC5CCC(C4)N5)cn3)c21 [I-101, 7-[[5-(3,8-diazabicyclo [3,2.1]octan-3-yl)-2-pyridyl]amino]-4-imidazo[1,2-a]pyridin-3-yl-isoindolin-1-one]",> 7.00
8,"Cn1ccc2c(-c3ccc(Nc4ccc(N5CCNCC5)cn4)c4c3CNC4=O)cccc21 [I-102, 4-(1-methylindol-4-yl)-7-[(5-piperazin-1-yl-2-pyridyl)amino] isoindolin-1-one]",> 7.00
9,"Cc1cc(-c2ccc(Nc3ccc(N4CCNCC4)cn3)c3c2CNC3=O)c2ccn(C)c2n1 [I-103, 4-(1,6-dimethylpyrrolo [2,3-b]pyridin-4-yl)-7-[(5-piperazin-1-yl-2-pyridyl)amino] isoindolin-1-one]",6.00 to 7.00
10,"O=C1NCc2c(-c3cnc4ccccn34)ccc(Nc3ccc(N4CCCNCC4)cn3)c21 [I-104, 7-[[5-(l,4-diazepan-1-yl)-2-pyridyl]amino]-4-imidazo[1,2-a]pyridin-3-yl-isoindolin-1-one]",> 7.00
11,"CN1CCOc2c(-c3ccc(Nc4ccc(N5CCNCC5)cn4)c4c3CNC4=O)ccnc21 [I-105, 4-(4-methyl-2,3-dihydropyrido [3,2-b][1.4]oxazin-8-yl)-7-[(5-piperazin-1-yl-2-pyridyl)amino] isoindolin-1-one]",> 7.00
12,"Cn1ccc2c(-c3ccc(Nc4ccc(S(C)(=O)=O)cn4)c4c3CNC4=O)ccnc21 [I-106, 4-(1-methylpyrrolo [2,3-b]pyridin-4-yl)-7-[(5-methylsulfonyl-2-pyridyl)amino] isoindolin-1-one]",> 7.00
13,"O=C1NCc2c(-c3ccnc4ccsc34)ccc(Nc3ccc(N4CCNCC4)cn3)c21 [I-107, 7-[(5-piperazin-1-yl-2-pyridyl)amino]-4-thieno[3,2-b]pyridin-7-yl-isoindolin-1-one]",> 7.00
14,"Cn1ccc2c(-c3ccc(Nc4ccc(C5CCOC5)cn4)c4c3CNC4=O)ccnc21 (stereo not drawn) [I-108, 4-(1-methylpyrrolo [2,3-b]pyridin-4-yl)-7-[(5-THF-3-yl-2-pyridyl)amino] isoindolin-1-one]",> 7.00
15,"CCNC(=O)c1ccc(Nc2ccc(-c3ccnc4c3ccn4C)c3c2C(=O)NC3)nc1 [I-109, N-ethyl-6-[[7-(1-methylpyrrolo [2,3-b]pyridin-4-yl)-3-oxo-isoindolin-4-yl]amino]pyridine-3-carboxamide]",> 7.00

# — US11021481B2, “Substituted isoindolin-1-ones and 2,3-dihydro-1h-pyrrolo[3,4-c]pyridin-1-ones as HPK1 antagonists” (Nimbus Saturn, Inc., priority 2019, dated 2021)
